This is an account of results in patent US4536400A, “Phosphonoformic acid esters” (priority 1977, dated 1985).

For data set [1], the system named is herpes simplex type 1. Put plainly: Plaque reduction assay for herpes simplex type 1 on GMK monolayers. The conditions noted are these: for inhibition at 500 µM: Human alphaherpesvirus 1, 500 μM test compound; for inhibition at 400 µM: Human alphaherpesvirus 1, 400 μM test compound. It counts as cell-based. The method, then: The plaque reduction assay for herpes simplex type 1 was performed on GMK (Green Monkey Kidney) cells as described by Ejereito et al. J. Gen. Virol. 2 (1968) 357. Monolayers on 5 cm petri dishes were used and after virus adsorption the test compound was added in the medium.
The plaque reduction assay for herpes simplex type 1 was performed on GMK (Green Monkey Kidney) cells as described by Ejereito et al. J. Gen. Virol 2 (1968) 357. Monolayers on 5 cm petri dishes were used and after virus adsorption the test compound was added in the medium.
Inhibition of herpes simplex type 1 plaque on GMK monolayers

Data set [2] concerns influenza (WSN Wilson Smith Neurotropic type A). Description: Inhibition of influenza WSN plaque on MDCK monolayers. It counts as cell-based, influenza virus.
The test system of data set [3] is cutaneous herpes simplex type 1 infections. Put plainly: Inhibition of cutaneous herpes on guinea pigs. It counts as in vivo, guinea pig. Particulars: scale 0 to 3. The source says:
The effect of cutaneous herpes simplex type 1 infections have been measured in a guinea pig model described by Hubler et al. J. Invest Dermatol 69 (1974) 92. […] The appearance of an infected treated area and a similar infected untreated (only isopropanol-glycerol-water) area was scored daily on a scale from 0 to 3. The total effect is judged from the score at day 5.

The nature of data set [4]: Preliminary acute toxicity test in mice. The data set is classed as in vivo. Particulars: groups of two male NMRI mice. The method, then: A preliminary acute toxicity test was carried out in mice. Groups of two male mice of the NMRI strain weighing 20-21 g received the test compound in doses of 62.5-500 mg/kg ip. The compound was given as a solution in 0.9% NaCl. The number of animals dead 24 hours after injection was as follows.

For data set [5], the system named is influenza Victoria. Description: Inhibition of influenza Victoria plaque on MDCK monolayers. The data set is classed as cell-based, influenza virus.
Where [6] appears, read: topical 2% solution, start of treatment 24 hours after infection.
Setting [7] is: topical 2% solution in isopropanol-glycerol-water twice daily for 3 days starting 4 hours after infection.
Where [8] appears, read: treated in 0.1% Tween 80-10% aqueous glycerol.
The mark [9] stands for this setting: treated in 0.1% Tween 80-10% aqueous glycerol, start of treatment 24 hours after infection.
Setting [10] is: Day 1, 10 μmol intraperitoneally, urine of two NMRI male mice.
Setting [11] is: Day 2, 10 μmol intraperitoneally, urine of two NMRI male mice.
Setting [12] is: Day 3, 10 μmol intraperitoneally, urine of two NMRI male mice.

As a reminder, the inhibition is the change of the read-out against control, counted positive when it falls. Read a low inhibition as a response near the control.

Where “and” joins values, the source holds several entries; their conditions need not be identical. Equal entries are not always repeated. Where two headings read alike, the source gives them in different places.

Turning to `O=C(Oc1ccccc1)P(=O)([O-])Oc1ccccc1.[Na+]` [VIS 043, Sodium phenyl phenoxycarbonylphosphonate], the “Inhibition (%)” value in data set [1] (20 μM test compound) was ~ 0%; in data set [1] (40 μM test compound), > 90.9%; in data set [1] (100 μM test compound, 100 µM), > 99.9% and > 99%; in data set [1] (500 μM test compound) it was > 99.9%; in data set [2] (20 μM test compound, 20 µM) it was 62% and 47%; in data set [2] (100 μM test compound, 100 µM), 84% and 90% and > 99.9%. For the same molecule, the “Inhibition (%)” value in data set [2] (500 μM test compound) was > 99.9%. In addition, the “Score at day 5, treated” value in data set [3] (setting [6]) was 0.

In the case of `O=C(Oc1ccccc1)P(=O)([O-])[O-].[Na+].[Na+]` [VIS 412, Disodium phenoxycarbonylphosphonate], the “Inhibition (%)” value in data set [1] (500 μM test compound, 500 µM) came out at 88%. In addition, the inhibition at 60 µM in data set [1] (Human alphaherpesvirus 1, 60 μM test compound) was ~50%. Besides, 500 µM produced 80% inhibition in data set [1]. The “Score at day 5, treated” value in data set [3] (setting [7]) and in data set [3] (setting [6]) was 0 throughout.

As to `COc1ccc(OP(=O)(O)C(=O)O)cc1` [VIS 067, p-Methoxyphenyl disodium oxycarbonylphosphonate], the “Inhibition (%)” value in data set [1] (5 μM test compound) was 57%; in data set [1] (20 μM test compound), 87%; in data set [1] (100 μM test compound), 99%; in data set [1] (500 μM test compound), > 99.9%; in data set [2] (100 μM test compound), 58%; in data set [2] (500 μM test compound, 500 µM) it was 73% and > 99.9%. Further, the “Score at day 5, treated” value in data set [3] (setting [8]) worked out at 1.

As for `Cc1ccc(OC(=O)P(=O)([O-])[O-])cc1.[Na+].[Na+]` [VIS 130, Disodium p-tolyloxycarbonylphosphonate], the inhibition at 200 µM in data set [1] (Human alphaherpesvirus 1, 200 μM test compound) was ~80%. Further, in data set [1], the inhibition at 400 µM is > 90%. For the same molecule, in data set [3] (setting [9]), the “Score at day 5, treated” value worked out at 1.

With `O=C(Oc1ccc(Cl)cc1)P(=O)([O-])[O-].[Na+].[Na+]` [VIS 238, Disodium p-chlorophenoxycarbonylphosphonate], the “Inhibition (%)” value in data set [1] (100 μM test compound, 100 µM) is 52% and ~ 90%; in data set [1] (500 μM test compound, 500 µM), 99%. Besides, in data set [1], the inhibition at 500 µM is 96%. Besides, the “Score at day 5, treated” value in data set [3] (setting [9]) is given as 1.

In the case of `COc1ccc(OP(=O)([O-])C(=O)Oc2ccccc2)cc1.[Na+]` [VIS 058, Sodium p-methoxyphenyl phenoxycarbonylphosphonate], the “Inhibition (%)” value is ~ 50% in data set [1] (10 μM test compound); > 90% in data set [1] (40 μM test compound); 88% in data set [1] (100 μM test compound); > 99.9% in data set [1] (500 μM test compound); 84% in data set [2] (100 μM test compound); > 99.9% in data set [2] (500 μM test compound).

`O=C(Oc1ccccc1)P(=O)(O)O` [drawing 123]: the “number of animals dead 24 hours after injection” value (“number of animals dead 24 hours” for short) in data set [4] (62.5 mg/kg ip), in data set [4] (125 mg/kg ip), in data set [4] (250 mg/kg ip) and in data set [4] (500 mg/kg ip) was 0/2 each time.

For the molecule `COc1ccc(OC(=O)P(=O)([O-])[O-])cc1.[Na+].[Na+]` [VIS 239, Disodium p-methoxyphenoxycarbonylphosphonate], the “Inhibition (%)” value in data set [1] (500 μM test compound, 500 µM) was 36% and 52% and 70%. In addition, in data set [1], the inhibition at 400 µM was ~60%. Also, the inhibition at 600 µM in data set [1] (Human alphaherpesvirus 1, 600 μM test compound) is > 90%. In addition, the “Score at day 5, treated” value in data set [3] (setting [9]) was determined as 1.

Take `O=C(Oc1ccccc1)P(=O)(Oc1ccccc1)Oc1ccccc1` [VIS 040, Hydroxycarbonylphosphonic Acid Triphenyl Ester]: the “Inhibition (%)” value is 90% in data set [2] (100 μM test compound) and > 99% in data set [2] (500 μM test compound). The “Score at day 5, treated” value in data set [3] (setting [6]) is 0.

Regarding `O=C(Oc1ccc(Cl)c(Cl)c1)P(=O)(O)O` [VIS 135, Disodium 3,4-dichlorophenoxycarbonylphosphonate], the inhibition at 100 µM in data set [1] (Human alphaherpesvirus 1, 100 μM test compound) is 85%.

Regarding `O=C(Oc1ccccc1)P(=O)([O-])Oc1ccc(Cl)cc1.[Na+]` [VIS 063, sodium p-chlorophenyl phenoxycarbonylphosphonate], the “Inhibition (%)” value was ~ 50% in data set [1] (5 μM test compound); > 90% in data set [1] (10 μM test compound); 69% in data set [1] (20 μM test compound); > 99.9% in data set [1] (100 μM test compound); > 99.9% in data set [1] (500 μM test compound); 72% in data set [2] (100 μM test compound). Besides, the “Inhibition (%)” value in data set [2] (500 μM test compound) was > 99.9%. The “Score at day 5, treated” value in data set [3] (setting [7]) is 2 and 3.

As for `O=C(O)P(=O)(O)O` [drawing 121, reference compound], the “Recovered phosphonoformic acid activity in urine” value (mouse, in vivo, ip) is 1.25 μmol phosphonoformic acid.

Consider `O=C(O)P(=O)(O)Oc1ccccc1` [VIS 041, Phenyl disodium oxycarbonylphosphonate], for which the “Inhibition (%)” value was ~ 50% in data set [1] (10 μM test compound); > 90% in data set [1] (40 μM test compound); > 99.9% and 99% in data set [1] (100 μM test compound, 100 µM); > 99.9% in data set [1] (500 μM test compound); > 99.9% in data set [2] (500 μM test compound). For the same molecule, the “Score at day 5, treated” value in data set [3] (setting [6]) amounted to 0.

Regarding `Cc1ccc(OP(=O)(O)C(=O)O)cc1` [VIS 059, p-tolyl disodium oxycarbonylphosphonate], the “Inhibition (%)” value in data set [1] (5 μM test compound, 5 µM) was 57% and > 90%; in data set [1] (20 μM test compound), 95%; in data set [1] (100 μM test compound), > 99.9%; in data set [1] (500 μM test compound) it was > 99.9%; in data set [2] (20 μM test compound, 20 µM) it was 58% and 36%; in data set [2] (500 μM test compound, 500 µM), > 99.9% and 91% and 92%. For the same molecule, the “Score at day 5, treated” value in data set [3] (setting [8]) is 1 and 2.

As to `O=C(O)P(=O)(O)Oc1ccccc1` [drawing 120], the “Recovered phosphonoformic acid activity in urine” value under setting [10] is on record as 1.00 μmol phosphonoformic acid, the “Recovered phosphonoformic acid activity in urine” value under setting [11] is 0.25 μmol phosphonoformic acid and the “Recovered phosphonoformic acid activity in urine” value under setting [12] is 0.25 μmol phosphonoformic acid.

As to `Cc1ccc(OP(=O)(Oc2ccc(C)cc2)C(=O)Oc2ccccc2)cc1` [VIS 056, Di-p-tolyl phenoxycarbonylphosphonate], the “Inhibition (%)” value was > 99% in data set [1] (100 μM test compound), > 99% in data set [1] (500 μM test compound) and 75% in data set [5] (200 μM test compound).

As to `O=C(O)P(=O)(O)Oc1ccc2c(c1)CCC2` [VIS 442, 5-Indanyl disodium oxycarbonylphosphonate], the “Inhibition (%)” value in data set [1] (10 μM test compound) was > 90%; in data set [1] (500 μM test compound), > 99.9%; in data set [2] (500 μM test compound) it was 94%. The “Score at day 5, treated” value in data set [3] (setting [9]) is reported as 1.

As for `O=C(O)P(=O)(O)Oc1ccc(Cl)cc1` [VIS 066, p-chlorophenyl disodium oxycarbonylphosphonate], the “Inhibition (%)” value in data set [1] (5 μM test compound, 5 µM) was 89% and ~ 75%; in data set [1] (10 μM test compound), > 90%; in data set [1] (20 μM test compound), 98%; in data set [1] (100 μM test compound) it was > 99.9%; in data set [1] (500 μM test compound), > 99.9%; in data set [2] (100 μM test compound), 54%. Further, in data set [2] (500 μM test compound), the “Inhibition (%)” value is recorded as > 99.9%.

On to `Cc1ccc(OP(=O)([O-])C(=O)Oc2ccccc2)cc1.[Na+]` [VIS 065, sodium p-tolyl phenoxycarbonylphosphonate], for which the “Inhibition (%)” value in data set [1] (10 μM test compound) is reported as ~ 50%; in data set [1] (20 μM test compound), > 90%; in data set [5] (200 μM test compound) it was 76%; in data set [5] (500 μM test compound), > 99%.

Regarding `O=C(Oc1ccccc1)P(=O)(O)Oc1ccccc1`, the “number of animals dead 24 hours” value in data set [4] (62.5 mg/kg ip), in data set [4] (125 mg/kg ip), in data set [4] (250 mg/kg ip) and in data set [4] (500 mg/kg ip) was 0/2 each time.

In the case of `O=C(O)P(=O)(O)Oc1ccccc1` [drawing 125], the “number of animals dead 24 hours” value in data set [4] (62.5 mg/kg ip), in data set [4] (125 mg/kg ip), in data set [4] (250 mg/kg ip) and in data set [4] (500 mg/kg ip) was 0/2 throughout.

Consider `Cc1ccc(OC(=O)P(=O)(O)O)cc1` [drawing 119], for which the “Recovered phosphonoformic acid activity in urine” value is reported as 1.25 μmol phosphonoformic acid under setting [10], 0.25 μmol phosphonoformic acid under setting [11] and 0.10 μmol phosphonoformic acid under setting [12].

As to `CCOC(=O)c1ccc(OC(=O)P(=O)([O-])[O-])cc1.[Na+].[Na+]` [VIS 242, Disodium p-(ethoxycarbonyl)phenoxycarbonylphosphonate], in data set [3] (setting [9]), the “Score at day 5, treated” value was determined as 1.
